Test results from patent US20090030017A1, “THERAPEUTIC AGENT FOR DYSKINESIA” (Eisai R & D Management Co., Ltd, priority 2005, published 2009).
Where two headings read alike, the source gives them in different places.

What was measured:
dyskinesia [1] = settings: rhesus monkey models; cited from earlier work
[2] = tested on: L-DOPA induced dyskinesia; assay: L-DOPA induced dyskinesia model in monkey (MPTP-treated, L-DOPA methylester and benserazide); type: in vivo, crab-eating macaques; settings: substance administered 20 minutes before L-DOPA methylester and benserazide, scored every 30 minutes for 5 hours
Protocol: To male crab-eating macaques, MPTP (1-methyl-4-phenyl-1,2,3,6-tetrahydropyridine) was frequently administered intravenously or subcutaneously in a dose of 0.2 to 1 mg/kg to cause Parkinson's disease.
In order to check the effect of the substance to be tested, i.e., 3-(2-cyanophenyl)-5-(2-pyridyl)-1-phenyl-1,2-dihydropyridine-2-on, the administration dose of L-DOPA methylester was adjusted to control the severity of the dyskinesia to a certain state.
The behavior before the administration of drugs (L-DOPA methylester and benserazide) was recorded, and then the substance to be tested was administered. 20 minutes after that, L-DOPA methylester and benserazide were administered.
The severity of the symptoms of Parkinson's disease was evaluated based on the items shown in Table 1 in a blinded manner, and shown as the total score.
The dyskinesia induced by the side effects of the administration of L-DOPA methylester and benserazide was evaluated based on the items shown in Table 2 in a blinded manner. […]
The symptoms were evaluated in a time-series manner before the administration of the drugs, and every 30 minutes after the administration of the drugs, for a total of 5 hours. The effect of the substance to be tested was determined as follows. […]

dyskinesia [3] = settings: cited from earlier work
dyskinesia [4] = settings: cited from earlier work; remark: listed apart in the source

SMILES: CCN(CC)Cc1cccc(C=Cc2nc3ccc(F)cc3c(=O)n2-c2ccccc2Cl)n1 [3-(2-chlorophenyl)-2-[2-(6-diethylaminomethylpyridine-2-yl)-vinyl]-6-fluoro-3H-quinazoline-4-on]
- effect on dyskinesia (dyskinesia [1]): has an effect on dyskinesia

SMILES: N#Cc1ccccc1-c1cc(-c2ccccn2)cn(-c2ccccc2)c1=O [3-(2-cyanophenyl)-5-(2-pyridyl)-1-phenyl-1,2-dihydropyridine-2-on]
- effect on dyskinesia (dyskinesia score, severity of dyskinesia) ([2]; FIG. 1, significant vs solvent P<0.01): provided an dyskinesia suppressing action
- effect on the symptoms of Parkinson's disease (total score) ([2]; FIG. 2, significant vs solvent P<0.05, P<0.01): clearly improving the symptoms of Parkinson's disease

SMILES: CC1(C)O[C@@H]2[C@@H](CO[C@@]3(COS(N)(=O)=O)OC(C)(C)O[C@@H]23)O1 [Topiramate]
- effect on the symptoms of Parkinson's disease (dyskinesia [3]; in vivo): shows a tendency of deteriorating the symptoms of Parkinson's disease, although not significantly
- effect on dyskinesia (dyskinesia [3]; marmoset models): has an action of suppressing dyskinesia

SMILES: CC(=O)N1N=C(c2ccc(N)cc2)c2cc3c(cc2C[C@H]1C)OCO3 [LY-300164, Talampanel]
- effect on dyskinesia (dyskinesia [4]; MPTP-treated monkeys with L-DOPA induced dyskinesia): the dyskinesia were improved
- effect on the symptoms of Parkinson's disease (symptom scores) (dyskinesia [4]; experiment with the monkeys): not recognized as having an effect of clearly improving the symptoms of Parkinson's disease
